Measured values reported in patent publication US10317393B2, “Alkynyl sugar analogs for labeling and visualization of glycoconjugates in cells” (Academia Sinica, priority 2007, dated 2019).

Columns and labels:
Jurkat cells [1] = assay: Cell growth analysis after treatment with sugar analogs (cell numbers counted); assay type: cell-based, human
Protocol: FIGS. 1A, 1B, 1C and 1D show analysis of cells labeled with Fuc analogs. […] Jurkat cells were grown in the presence of 200 micromolar each Fuc analog for 3 days before cell numbers were counted. The data represent the percentage of treated cells vs. untreated cells (n=4).
It is also disclosed how treatment with exogenous Fuc analog affects cell growth rate. […] In contrast, the addition of 200 micromolar azido Fuc 2 inhibits cell growth considerably, by 65% when compared with the untreated cells. […] Such toxicity may lead to global change in expression, therefore a nontoxic probe is preferable for accurate probing of glycoconjugate expression.
Jurkat cells were cultivated (2×10^6/10 ml) in RPMI medium 1640 supplemented with 10% FCS and various concentrations of peracetylated alkynyl sugars 1, 2, or 4 or native sugars 3 or 5, for 1-3 days at 37° C. Cells were then harvested, washed with 0.1% FCS/PBS, and resuspended (10^6 cells) in 100 microliters of click reaction solution (0.1 mM biotin probe 6 or fluorogenic probe 7/0.1 mM Tris-thiazoleamine catalyst/0.1 mM CuSO4/0.5 mM sodium ascorbate, in PBS). The reaction was incubated at room temperature for 30 min, and then the cells were washed twice with 0.1% FCS/PBS. Cells treated with biotin probe 6 were subsequently stained with fluorescein-conjugated streptavidin (0.5 microgram per sample in 50 microliters of 1% FCS/PBS) for 30 min at 4° C., and washed three times with 1% FCS/PBS. Data were acquired by BD LSR II with FACSDiva software, and were analyzed by CellQuestPro software (BD Biosciences). Detection of fluorescent adduct with probe 7 was monitored with a 408 nm laser and a 440/40 bandpass filter for excitation and emission, respectively.

Jurkat cells [2] = assay: Flow cytometry of cell surface labeling with fluorogenic coumarin probe 7; assay type: cell-based, human; details: 200 micromolar Fuc analogs or 25 micromolar ManNAc analogs, 3 days
Source text: FIGS. 3A and 3B show tagging of cell surface glycans by derivatized alkynyl sugar analogs and subsequent labeling with probe 3-azido-7-hydroxycoumarin 7. Shown is flow cytometry analysis of Jurkat cells tagged with 200 micromolar derivatized alkynyl Fuc 1 shown in FIG. 3A or 25 micromolar alkynyl-derivatized ManNAc 4 shown in FIG. 3B for 3 days. The fluorescence intensity was detected after labeling with a coumarin probe 7. Filled histogram, cells treated with control sugar analog 3 or 5; open histogram, cell treated with alkynyl-derivatized sugar 1 or 4.
Recently, another click-activated azido-derivatized fluorescent probe, based on coumarin, was reported in the literature. In one aspect of the disclosure, the fluorogenic probe, 3-azido-7-hydroxycoumarin 7, is used as the coupling partner for alkynyl tags on labeled glycoconjugates.
Jurkat cells were cultivated (2×10^6/10 ml) in RPMI medium 1640 supplemented with 10% FCS and various concentrations of peracetylated alkynyl sugars 1, 2, or 4 or native sugars 3 or 5, for 1-3 days at 37° C. […] Data were acquired by BD LSR II with FACSDiva software, and were analyzed by CellQuestPro software (BD Biosciences). Detection of fluorescent adduct with probe 7 was monitored with a 408 nm laser and a 440/40 bandpass filter for excitation and emission, respectively.

H. pylori = assay: Labeling and detection of fucosylated glycoconjugates in H. pylori (immunoprecipitation, SDS-PAGE, protein blot); assay type: cell-based, Helicobacter pylori
Protocol: Representative H. pylori strains isolated from human gastric biopsy specimens, including gastritis (HS), duodenal ulcer (HD), gastric ulcer (HU) and gastric cancer (HC), were subjected to MOE: all the strains were grown on CDC agar plate supplemented with 200 micromolar derivatized alkynyl Fuc 1 for two days under micro-aerobic atmosphere (5% O2, 15% CO2, 80% N2). […] Immunoprecipitates were then analyzed by SDS-PAGE and stained for visualization. […]
Protein extracts were prepared in lysis buffer (1% NP-40, 150 mM NaCl, 100 mM sodium phosphate pH 7.5, 1×EDTA-free protease inhibitor cocktail) and labeled with biotin probe 6 (protein 1 mg/ml with 0.1 mM azido biotin 6/0.1 mM Tris-thiazoleamine catalyst/1 mM CuSO4/2 mM sodium ascorbate in lysis buffer) via cycloaddition at room temperature for 1 h. […] Immunoprecipitates were then analyzed by SDS-PAGE and stained for visualization. […]
Detection of CagA on protein blots: Protein extracted from control or alkynyl Fuc 1 analog-treated HC samples were subjected to cycloaddition labeling to label with biotin probe (protein 1 mg/ml with 0.1 mM azido biotin 6/0.1 mM Tris-thiazoleamine catalyst/1 mM CuSO4/2 mM sodium ascorbate in lysis buffer), followed by immunoprecipitation with anti-CagA antibody (Santa Cruz). The derivatized alkynyl Fuc tags/biotin labeling on CagA protein were detected by peroxidase-conjugated streptavidin on protein blot.

## 1,2,3,4-tetraacetyl alkynyl fucose [alkynyl Fuc 1]
Jurkat cells [1]; 200 micromolar, 3 days
  number of cells after 3 days versus cells grown without exogenous Fuc: similar
Jurkat cells [1]; at levels required for efficient labeling
  toxicity to cells (summary statement): much less toxic
Jurkat cells [2]
  fluorescent labeling after reacting with 3-azido-7-hydroxycoumarin probe: significant fluorescent labeling
H. pylori; 200 micromolar, two days, strains HS, HD, HU, HC
  tagged fucosyl proteins isolated by anti-biotin immunoprecipitation: several proteins were detected
H. pylori; HC strain, anti-CagA immunoprecipitation
  biotinylated Fuc tags on CagA protein (protein blot): specific signal is only detected in MOE-tagged HC strain
